ChEMBL document CHEMBL1142638, “Thalicosides A1-A3, minor cycloartane bisdesmosides from Thalictrum minus” (2000)

Assays:
Candida albicans = assay: Antifungal activity against Candida albicans ATCC 90028 at 1 mg/mL after 24 hrs by spectrophotometry; assay type: functional
Staphylococcus aureus = assay: Antibacterial activity against Staphylococcus aureus ATCC 6538P at 1 mg/mL after 24 hrs by spectrophotometry; assay type: functional

CC(C)=CC[C@H](O)[C@@H](C)[C@H]1[C@@H](O)C[C@@]2(C)[C@@H]3CC[C@H]4[C@](C)(CO[C@@H]5O[C@H](CO)[C@@H](O)[C@H](O)[C@H]5O)[C@@H](O[C@@H]5OC[C@H](O)[C@H](O)[C@H]5O)CC[C@@]45C[C@@]35CC[C@]12C [THALICOSIDE A2]
Activity (Candida albicans): 78.7%
Activity (Staphylococcus aureus): 45.7%
